“Also recorded” adds a separate entry of the source.
Assays:
[1] = tested on: β-catenin; experiment: Western blot of β-catenin in HaCaT keratinocytes; type: cell-based; conditions: FIG. 6a; for expression level of β-catenin: 5 hr, single treatment; for β-catenin expression in the presence of DKK-1: treatment with both DKK-1 and peptide
Method: (§1) HaCaT kerationcytes cultured for 48 hr were incubated with the peptides synthesized in preparation Example 1 for 5 hr. The expression level of β-catenin was examined, which is an essential signal molecule to promote hair growth as a representative signaling of WNT protein. The amount of β-catenin was measured by Western blot analysis using an antibody against β-catenin (SantaCruz, USA). In addition, it was observed by an immunohistochemical assay using the same whether β-catenin is translocated into a nucleus. […] Besides, […] activities were also observed in cytosol as β-catenin is still present in cytosol (FIG. 6b).

[2] = tested on: fibronectin; experiment: Fibronectin ELISA in NIH3T3 fibroblasts; type: cell-based; conditions: NIH3T3, FIG. 9b
Method: To verify whether the peptides synthesized in preparation Example 1 enhances the expression of fibronectin as a WNT target protein, NIH3T3 fibroblasts (4×10^3 cells) was added to each well of 96-well plates and cultured under 5% CO2 for 24 hr at 37° C. After 24-hr culture, the medium was changed with a fresh medium without serum and cells were treated with empty sample (for normalization), three peptides synthesized (1 μg/ml) and peptide complex (1 μg/ml) aseptically dissolved in 10% DMSO for 3 hr, 10 hr, 24 hr or 48 hr under the same conditions as described above. After 72 hr incubation, the cell culture was collected and the expression level of fibronectin was measured using Fibronectin ELISA kit (R&D systems, USA).

[3] = tested on: Hair follicle of Balb/C mouse; experiment: Mouse hair follicle culture, H&E staining; type: cell-based; conditions: 5 days culture, FIG. 13a
Method: Hair follicle of Balb/C mouse hair was dissected with a surgical mess and washed with ethanol, followed by additionally washing with PBS and DMEM culture solution. Hereafter, hair follicles were incubated with 5 μg/ml of each peptide complex dissolved in DMEM culture solution, and cultured under 5% CO2 for 5 days at 37° C. After 5 days-culture, hair follicles were prepared as a paraffin block and each tissue treated with control, peptide complex, DKK-1, and DKK-1 and peptide complex was stained and compared using H&E staining (FIGS. 13a-13d).

[4] = tested on: β-catenin; experiment: Mouse hair follicle culture, β-catenin immunostaining; type: cell-based; conditions: 5 days culture, FIG. 13b
[5] = tested on: WNT protein; experiment: Mouse hair follicle culture, WNT protein immunostaining; type: cell-based; conditions: 5 days culture, FIG. 13c
[6] = tested on: Ki-67 protein; experiment: Mouse hair follicle culture, Ki-67 immunostaining; type: cell-based; conditions: 5 days culture, FIG. 13d
[7] = tested on: HaCaT kerationcytes; experiment: SRB colorimetric assay of cell growth in HaCaT keratinocytes; type: cell-based; conditions: 72 hr
Method: (§2) In order to evaluate three peptides prepared in Preparation Examples 1-2 whether they have similar activities of growth factor, SRB (Sulforhodamine B; Sigma-Aldrich) colorimetric assay was carried out using HaCaT kerationcytes (Korean Cell Line Bank) and NIH3T3 fibroblasts (Korean Cell Line Bank) according to Rizzino et al. method (Rizzino, et al. Cancer Res., 48: 4266 (1988)).
(§3) HaCaT ketatinocytes and NIH3T3 fibroblasts were cultured in 250 ml-flasks containing EMEM (Eagle's minimal essential media; Gibco, USA) supplemented with 10% FBS (fetal bovine serum; Sigma). Cells cultured were treated with 1% trypsin solution to detach cells from the bottom of culture flasks and centrifuged to collect cell pellets. After cells were resuspended in EMEM not containing FBS, its aliquot (3×10^3 cells) was added to each well of 96-well plates and cultured under 5% CO2 for 24 hr at 37° C. After 24-hr culture, the medium was changed with a fresh medium without serum and cells were incubated with empty sample (for normalization), three peptides synthesized (1 ng/ml, 10 ng/ml, 100 ng/ml, 1 μg/ml and 10 μg/ml) and peptide complex (1 μg/ml) aseptically dissolved in 10% DMSO for 72 hr under the same conditions as described above. […] In addition, absorbance at 590 nm was measured to analyze cell viability. […]

[8] = tested on: NIH3T3 fibroblasts; experiment: SRB colorimetric assay of cell growth in NIH3T3 fibroblasts; type: cell-based
Method: as §2, §3

[9] = tested on: Ki-67 protein; experiment: Ki-67 immunostaining (cell proliferation marker) in keratinocytes; type: cell-based; conditions: FIG. 4
[10] = tested on: β-catenin; experiment: Immunohistochemical assay of β-catenin translocation into nucleus in HaCaT keratinocytes; type: cell-based; conditions: FIG. 6b
Method: as §1

[11] = tested on: C57BL/6 mouse; experiment: Mouse hair growth, topical nanosome on back skin; type: in vivo; conditions: twice every day
Excerpt: The peptide synthesized in Preparation Example 1 was formulated into nanosome. Afterwards, the back of C57BL/6 mouse was partially removed and then the skin was topically administered with the nanosome twice every day for 15 days.

| expression of Ki-67 protein in hair follicle, single treatment [6] | Substance | expression level of β-catenin ([1]; FIG. 8) | fibronectin expression, DKK-1 alone [2] | hair follicles (H&E), single treatment [3] | expression of β-catenin in hair follicle, single treatment [4] | expression of WNT protein in hair follicle, single treatment [5] | proliferation and cell shape under a microscope, keratinocytes ([7]; FIG. 3) | growth of keratinocytes ([7]; HaCaT, 1 ng/ml to 10 μg/ml, FIG. 2a) | proliferation and cell shape under a microscope, fibroblasts ([8]; 72 hr, FIG. 3) | growth of fibroblasts ([8]; NIH3T3, 72 hr, 1 ng/ml to 10 μg/ml, FIG. 2b) | expression of Ki-67 protein in keratinocytes [9] | expression level of β-catenin ([1]; FIG. 8, listed as the present peptide) | β-catenin expression in the presence of DKK-1 [1] | β-catenin expression in the presence of DKK-1 ([1]; listed as the present peptide) | translocation of β-catenin to nucleus / β-catenin activity by immunostaining [10] | translocation of β-catenin to nucleus / β-catenin activity by immunostaining ([10]; listed as the present peptide) | expression level of fibronectin in treatment with both DKK-1 and peptide ([2]; listed as the present peptide) | hair growth on mouse back skin at 9 days-treatment ([11]; C57BL/6) | amount of hair in mouse back skin at 15 days-treatment compared with control group ([11]; C57BL/6, FIG. 12) |
| --- | --- | --- | --- | --- | --- | --- | --- | --- | --- | --- | --- | --- | --- | --- | --- | --- | --- | --- | --- |
| suppressed | DKK-1: a WNT inhibitor and a β-catenin signaling inhibitor, hair loss gene | reduced | inhibited | degenerated | inhibited | inhibited |  |  |  |  |  |  |  |  |  |  |  |  |  |
|  | H-RQTRVQRCHC-OH (cysteine pairing not given here) [the peptide of the present invention] | significantly elevated |  |  |  |  | promotes proliferation of keratinocytes and fibroblasts, and changes their morphological shapes | notably increases the growth of keratinocytes | promotes proliferation of keratinocytes and fibroblasts, and changes their morphological shapes | notably increases the growth | remarkably enhanced | enhancement of β-catenin expression; also recorded: induces elevated activity of β-catenin | β-catenin activity is observed | re-increase of the expression of β-catenin; also recorded: restored and enhanced | elevated activity of β-catenin | contributes to translocation of β-catenin from cytosol to nucleus | restored and enhanced; also recorded: recovered | growing hair was observed | much significantly enhanced |

Reference: patent US8497241B2, “WNT10-derived peptide and use thereof” (Caregen Co., Ltd., priority 2009, dated 2013)
